The source of these data is PubChem BioAssay AID602463 (NMMLSC, 2012).

In the series the test system is DS-PAMPA, 20% ACN buffer, UV absorbance, 30 min. The series can be described thus: passive membrane permeability of hits, cosolvent PAMPA, late-stage follow-up, ADME assay for GPR30 and estrogen receptor ligands, biophysical, double-sink PAMPA, 20% ACN buffer, pH 5.0/6.2/7.4 (AID 602463). The settings on record: stronger effect = higher value. Background: PAMPA measures passive passage across an artificial lipid membrane.

Take `CC(=O)c1ccc2c(c1)[C@@H]1C=CC[C@@H]1[C@H](c1cc3c(cc1Br)OCO3)N2`: the permeability pH 7.4 is 316 10^-6 cm/s. The permeability pH 5.0 (measured here: PAMPA permeability at pH 5.0) was 349 10^-6 cm/s. Also, under “measured here: PAMPA permeability at pH 6.2”, the permeability pH 6.2 is 565 10^-6 cm/s.
